Test results from ChEMBL document CHEMBL1268965, “Synthesis and antifungal activity of a novel series of 13-(4-isopropylbenzyl)berberine derivatives” (Bioorg Med Chem Lett, 2010).
Values after ≈ are worked out from the molar mass of the structure shown.

Legend:
Candida tropicalis = experiment: Antifungal activity against Candida tropicalis ATCC 13803 after 24 hrs by two fold serial dilution method; type: functional; settings: ATCC 13803, 24 h
Aspergillus fumigatus = experiment: Antifungal activity against Aspergillus fumigatus ATCC 16424 after 24 hrs by two fold serial dilution method; type: functional; settings: ATCC 16424, 24 h
Candida albicans = experiment: Antifungal activity against Candida albicans ATCC 10231 after 24 hrs by two fold serial dilution method; type: functional; settings: ATCC 10231, 24 h
Cryptococcus neoformans = experiment: Antifungal activity against Cryptococcus neoformans ATCC 36556 after 24 hrs by two fold serial dilution method; type: functional; settings: ATCC 36556, 24 h
Clavispora lusitaniae = experiment: Antifungal activity against Candida lusitaniae ATCC 42720 after 24 hrs by two fold serial dilution method; type: functional; settings: ATCC 42720, 24 h
Pichia kudriavzevii = experiment: Antifungal activity against Candida krusei ATCC 6258 after 24 hrs by two fold serial dilution method; type: functional; settings: ATCC 6258, 24 h
Aspergillus terreus = experiment: Antifungal activity against Aspergillus terreus ATCC 46941 after 24 hrs by two fold serial dilution method; type: functional; settings: ATCC 46941, 24 h
Mus musculus [1] = experiment: Toxicity ICR mouse assessed as effect on internal organ morphology at 33 to 900 mg/kg, po after 7 days by microscopy; type: organism-based; set-up: dose 33-900 mg/kg, route oral; settings: in vivo, 168 h
Mus musculus [2] = experiment: Toxicity ICR mouse assessed as appearance of clinical signs at 33 to 900 mg/kg, po after 7 days; type: organism-based; set-up: dose 33-900 mg/kg, route oral; settings: in vivo, 168 h
[3] = Toxicity in po dosed ICR mouse after 7 days; type: organism-based; settings: in vivo
Mus musculus [4] = experiment: Toxicity ICR mouse assessed as mortality at 33 to 900 mg/kg, po after 7 days; type: organism-based; set-up: dose 33-900 mg/kg, route oral; settings: in vivo, 168 h
Mus musculus [5] = experiment: Toxicity ICR mouse assessed as effect on body weight at 33 to 900 mg/kg, po after 7 days; type: organism-based; set-up: dose 33-900 mg/kg, route oral; settings: in vivo, 168 h

| MIC (Candida tropicalis) | MIC (Aspergillus fumigatus) | MIC (Candida albicans) | MIC (Cryptococcus neoformans) | MIC (Clavispora lusitaniae) | MIC (Pichia kudriavzevii) | MIC (Aspergillus terreus) | SMILES | Activity (Mus musculus [1]) | Activity (Mus musculus [2]) | LD50 at 168 h [3] | Activity (Mus musculus [4]) | Activity (Mus musculus [5]) |
| --- | --- | --- | --- | --- | --- | --- | --- | --- | --- | --- | --- | --- |
| 0.5 µg/mL | 4 µg/mL | 1 µg/mL | 2 µg/mL | 0.5 µg/mL | 2 µg/mL | 8 µg/mL | CCCOc1c(OC)ccc2c(Cc3ccc(C(C)C)cc3)c3[n+](cc12)CCc1cc2c(cc1-3)OCO2.[Cl-] | – | – | – | – | – |
| 16 µg/mL | > 128 µg/mL | 16 µg/mL | 8 µg/mL | 16 µg/mL | 16 µg/mL | > 128 µg/mL | COc1ccc2c(Cc3ccc(C(C)C)cc3)c3[n+](cc2c1OC(C)=O)CCc1cc2c(cc1-3)OCO2.[Cl-] | – | – | – | – | – |
| 16 µg/mL (≈ 35.3 µM) | > 128 µg/mL | 16 µg/mL (≈ 35.3 µM) | 4 µg/mL (≈ 8.82 µM) | 16 µg/mL (≈ 35.3 µM) | 16 µg/mL (≈ 35.3 µM) | > 128 µg/mL | COc1ccc2c(Cc3ccc(C(C)C)cc3)c3n(cc-2c1=O)CCc1cc2c(cc1-3)OCO2 | – | – | – | – | – |
| 1 µg/mL | 8 µg/mL | 2 µg/mL | 2 µg/mL | 1 µg/mL | 2 µg/mL | 8 µg/mL | COc1ccc2c(Cc3ccc(C(C)C)cc3)c3[n+](cc2c1OCCCO)CCc1cc2c(cc1-3)OCO2.[Cl-] | – | – | – | – | – |
| 1 µg/mL | 32 µg/mL | 2 µg/mL | 4 µg/mL | 1 µg/mL | 4 µg/mL | 16 µg/mL | CCC(C)(C)Oc1c(OC)ccc2c(Cc3ccc(C(C)C)cc3)c3[n+](cc12)CCc1cc2c(cc1-3)OCO2.[Cl-] | – | – | – | – | – |
| 1 µg/mL | 4 µg/mL | 1 µg/mL | 2 µg/mL | 1 µg/mL | 4 µg/mL | 8 µg/mL | COc1ccc2c(Cc3ccc(C(C)C)cc3)c3[n+](cc2c1OCc1ccc(C(C)(C)C)cc1)CCc1cc2c(cc1-3)OCO2.[Cl-] | – | – | – | – | – |
| 1 µg/mL | 4 µg/mL | 1 µg/mL | 2 µg/mL | 1 µg/mL | 2 µg/mL | 8 µg/mL | COc1ccc2c(Cc3ccc(C(C)C)cc3)c3[n+](cc2c1OCc1ccc(C(C)C)cc1)CCc1cc2c(cc1-3)OCO2.[Cl-] | – | – | – | – | – |
| 1 µg/mL | 64 µg/mL | 4 µg/mL | 4 µg/mL | 1 µg/mL | 4 µg/mL | 32 µg/mL | COc1ccc2c(Cc3ccc(C(C)C)cc3)c3[n+](cc2c1OC)CCc1cc2c(cc1-3)OCO2 | – | – | – | – | – |
| 4 µg/mL | 32 µg/mL | 4 µg/mL | 4 µg/mL | 4 µg/mL | 4 µg/mL | 32 µg/mL | COc1ccc2c(Cc3ccc(C(C)C)cc3)c3[n+](cc2c1OCc1cc(F)c(F)c(F)c1)CCc1cc2c(cc1-3)OCO2.[Cl-] | – | – | – | – | – |
| 2 µg/mL | 32 µg/mL | 2 µg/mL | 4 µg/mL | 2 µg/mL | 4 µg/mL | 16 µg/mL | COc1ccc2c(Cc3ccc(C(C)C)cc3)c3[n+](cc2c1OCc1ccc(OC(F)(F)F)cc1)CCc1cc2c(cc1-3)OCO2.[Cl-] | – | – | – | – | – |
| 1 µg/mL | 32 µg/mL | 4 µg/mL | 4 µg/mL | 1 µg/mL | 4 µg/mL | 32 µg/mL | COc1ccc2c(Cc3ccc(C(C)C)cc3)c3[n+](cc2c1OC(C)(C)C)CCc1cc2c(cc1-3)OCO2.[Cl-] | – | – | – | – | – |
| 0.5 µg/mL | 2 µg/mL | 0.5 µg/mL | 1 µg/mL | 0.5 µg/mL | 1 µg/mL | 4 µg/mL | C/C=C/COc1c(OC)ccc2c(Cc3ccc(C(C)C)cc3)c3[n+](cc12)CCc1cc2c(cc1-3)OCO2.[Cl-] | – | – | – | – | – |
| 4 µg/mL | 64 µg/mL | 4 µg/mL | 4 µg/mL | 4 µg/mL | 4 µg/mL | 32 µg/mL | COc1ccc2c(Cc3ccc(C(C)C)cc3)c3[n+](cc2c1OCc1ccccc1)CCc1cc2c(cc1-3)OCO2.[Cl-] | – | – | – | – | – |
| 2 µg/mL | 16 µg/mL | 2 µg/mL | 4 µg/mL | 2 µg/mL | 4 µg/mL | 16 µg/mL | COc1ccc2c(Cc3ccc(C(C)C)cc3)c3[n+](cc2c1OCc1ccc(C(F)(F)F)cc1)CCc1cc2c(cc1-3)OCO2.[Cl-] | – | – | – | – | – |
| 1 µg/mL | 8 µg/mL | 1 µg/mL | 2 µg/mL | 1 µg/mL | 2 µg/mL | 8 µg/mL | C=CCOc1c(OC)ccc2c(Cc3ccc(C(C)C)cc3)c3[n+](cc12)CCc1cc2c(cc1-3)OCO2.[Cl-] | – | – | – | – | – |
| 8 µg/mL | > 128 µg/mL | 8 µg/mL | 4 µg/mL | 8 µg/mL | 8 µg/mL | > 128 µg/mL | CCCC(=O)Oc1c(OC)ccc2c(Cc3ccc(C(C)C)cc3)c3[n+](cc12)CCc1cc2c(cc1-3)OCO2.[Cl-] | – | – | – | – | – |

| SMILES | MIC (Candida tropicalis) | MIC (Aspergillus fumigatus) | MIC (Candida albicans) | MIC (Cryptococcus neoformans) | MIC (Clavispora lusitaniae) | MIC (Pichia kudriavzevii) | MIC (Aspergillus terreus) | Activity (Mus musculus [1]) | Activity (Mus musculus [2]) | LD50 at 168 h [3] | Activity (Mus musculus [4]) | Activity (Mus musculus [5]) |
| --- | --- | --- | --- | --- | --- | --- | --- | --- | --- | --- | --- | --- |
| C[C@@H]1[C@H](O)[C@@H](C)/C=C/C=C/C=C/C=C/C=C/C=C/C=C/[C@H](O[C@@H]2O[C@H](C)[C@@H](O)[C@H](N)[C@@H]2O)C[C@@H]2O[C@](O)(C[C@@H](O)C[C@@H](O)[C@H](O)CC[C@@H](O)C[C@@H](O)CC(=O)O[C@H]1C)C[C@H](O)[C@H]2C(=O)O [AMPHOTERICIN B] | 0.5 µg/mL (≈ 0.541 µM) | 1 µg/mL (≈ 1.08 µM) | 0.5 µg/mL (≈ 0.541 µM) | 0.25 µg/mL (≈ 0.271 µM) | 1 µg/mL (≈ 1.08 µM) | 0.5 µg/mL (≈ 0.541 µM) | 16 µg/mL (≈ 17.3 µM) | – | – | – | – | – |
| CCCCOc1c(OC)ccc2c(Cc3ccc(C(C)C)cc3)c3[n+](cc12)CCc1cc2c(cc1-3)OCO2.[Cl-] | 0.25 µg/mL | 2 µg/mL | 0.5 µg/mL | 1 µg/mL | 0.25 µg/mL | 1 µg/mL | 4 µg/mL | Non-toxic | Non-toxic | 900 mg/kg | Non-toxic | Non-toxic |
